Data set [1] concerns Staphylococcus aureus 101, MRSA and Trimethoprim-resistant; clinical isolate. Description: MIC against Staphylococcus aureus 101. To be noted: read-out: MIC Sa101. In kind it is cell-based. The procedure: (§1) The following Table contains inhibitory concentrations determined in the above test for representative members of the class of compound defined by formula I. The following microorganisms were tested: […]
Col. 2: MIC Sa101; μg/ml (Staphylococcus aureus 101, MRSA^*)— and Trimethoprim-resistant; clinical isolate, stored at −80° C.)
^*) MRSA=Methicillin Resistant Staphylococcus Aureus

The test system of data set [2] is Streptococcus pneumoniae 1/1, Trimethoprim- and Penicillin-resistant, Serotype 6; clinical isolate. Description: MIC against Streptococcus pneumoniae 1/1. In kind it is cell-based. The note with it: read-out: MIC Spn1/1. The procedure: as §1
Col. 1: MIC Spn1/1; μg/ml (Streptococcus pneumoniae 1/1, Trimethoprim- and Penicillin-resistant, Serotype 6; clinical isolate, stored at −80° C.)
Lit.: H. Locher et al., Can. J. Infect. Dis.6: Suppl. C, p 469C.

Data set [3] has as its target T1, purified DHFR of strain Sp1/1 of Streptococcus pneumoniae (Streptococcus pneumoniae, UniProt Q54801).
T1 sequence (Q54801 1-168): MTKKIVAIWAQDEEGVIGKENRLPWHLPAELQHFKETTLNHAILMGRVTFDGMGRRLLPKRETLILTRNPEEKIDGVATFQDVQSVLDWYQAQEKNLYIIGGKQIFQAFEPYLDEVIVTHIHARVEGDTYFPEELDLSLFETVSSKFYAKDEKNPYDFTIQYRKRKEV
To be noted: read-out: DHFR Spn1/1 (IC50); purified DHFR of S. pneumoniae strain Spn1/1; IC50 determined graphically.
Source text: 3: DHFR Spn1/1; μM—the IC50-values in μM against the purified DHFR of the above strain Sp1/1 of Streptococcus pneumoniae.

Data set [4] concerns the target purified DHFR of the strain 157/4696 (highly trimethoprim-resistant; clinical isolate) of Staphylococcus aureus (Staphylococcus aureus, UniProt P13955). In words: biochemical.
Source text: The inhibition of the enzyme was taken as a measurement for the antibacterial activity.

SMILES strings stand for the structures. In brackets after ≈: the same amount, converted by molar mass.

For orientation: melting point means the temperature, or range, at which the solid turns liquid.

As to `COc1cc(Cc2cnc(N)nc2N)cc2c1OC(C)(C)C=C2Cl` [Example 6, 5-(4-Chloro-8-methoxy-2,2-dimethyl-2H-chromen-6-ylmethyl)-pyrimidine-2,4-diamine], the melting point is 221 to 222 °C. In addition, in data set [1], the MIC turned out to be 1 µg/mL (≈ 2.88 µM). In addition, the MIC in data set [2] turned out to be 4 µg/mL (≈ 11.5 µM). Also, the IC50 in data set [3] turned out to be 110 nM. Moreover, the IC50 in data set [4] is 380 nM.

The compound `CCCC1=CC(C)(C)Oc2c(OCC)cc(Cc3cnc(N)nc3N)cc21` [Example 10, 5-(8-Ethoxy-2,2-dimethyl-4-propyl-2H-chromen-6-ylmethyl) -pyrimidine-2,4-diamine] showed a melting point of 208 to 209 °C. Besides, the MIC in data set [1] is 4 µg/mL (≈ 10.9 µM). Moreover, in data set [2], the MIC is 2 µg/mL (≈ 5.43 µM). Moreover, the IC50 in data set [3] is 15 nM. In data set [4], this compound registered an IC50 of 1100 nM.

As to `CCOc1cc(Cc2cnc(N)nc2N)cc2c1OC1(C=C2Br)CCC1` [Example 30, 5-[(4-Bromo-8-ethoxyspiro[2H-1-benzopyran-2,1′-cyclobutan]-6-yl)methyl]-2,4-pyrimidinediamine], the melting point is 213 to 214 °C. In addition, in data set [1], the MIC was determined as 2 µg/mL (≈ 4.79 µM). Besides, in data set [2], the MIC is 4 µg/mL (≈ 9.59 µM). Besides, the IC50 in data set [3] stood at 8.9 nM. Also, the IC50 in data set [4] is 210 nM.

`COCC#CC1=CC(C)(C)Oc2c(OC)cc(Cc3cnc(N)nc3N)cc21` [Example 16, 5-[8-Methoxy-4-(3-methoxy-prop-1-ynyl)-2,2-dimethyl-2H-chromen-6-ylmethyl]-pyrimidine-2,4-diamine] showed a melting point of 236 to 237 °C. Moreover, the MIC in data set [1] amounted to 4 µg/mL (≈ 10.5 µM). Further, the MIC in data set [2] is > 8 µg/mL. Moreover, the IC50 in data set [3] came to 680 nM. In data set [4], this compound yielded an IC50 of 220 nM.

Consider `CCOc1cc(Cc2cnc(N)nc2N)cc2c1OC(C)(C)C=C2CC` [Example 9, 5-(8-Ethoxy-4-ethyl-2,2-dimethyl-2H-chromen-6-ylmethyl)-pyrimidine-2,4-diamine], for which the melting point was 222 to 225 °C (dec.). Besides, in data set [1], the MIC was determined as 4 µg/mL (≈ 11.3 µM). The MIC in data set [2] amounted to 1 µg/mL (≈ 2.82 µM). Moreover, the IC50 in data set [3] turned out to be 12 nM. In addition, the IC50 in data set [4] worked out at 670 nM.

`CCOc1cc(Cc2cnc(N)nc2N)cc2c1OC(C)(C)C=C2C` [Example 8, 5-(8-Ethoxy-2,2,4-trimethyl-2H-chromen-6-ylmethyl)-pyrimidine-2,4-diamine] returned a melting point of 216 to 218 °C. In addition, the MIC in data set [1] came out at 4 µg/mL (≈ 11.7 µM). Further, in data set [2], the MIC came out at 2 µg/mL (≈ 5.87 µM). In data set [3], the IC50 was 15 nM. The compound further had an IC50 in data set [4] of 1300 nM.

On to `CCOc1cc(Cc2cnc(N)nc2N)cc2c1OC(C)(C)C=C2Br` [Example 7, 5-(4-Bromo-8-ethoxy-2,2-dimethyl-2H-chromen-6-ylmethyl)-pyrimidine-2,4-diamine], for which the MIC in data set [1] and in data set [2] was 0.5 µg/mL (≈ 1.23 µM) throughout. The IC50 in data set [3] is 0.33 nM; in data set [4], 110 nM.

For the origin of these results see patent publication US6818649B2, “Chromenylmethyl pyrimidinediamines as antibacterial agents” (Basilea Pharmaceutica AG, priority 2000, dated 2004).
